In assay [1] the test system is Plasmodium falciparum. Nature of the assay: Antimalarial activity against chloroquine-sensitive Plasmodium falciparum D6. The class given is functional, organism-based.
Assay [2] deals with Plasmodium falciparum. Nature of the assay: Antimalarial activity against chloroquine-resistant Plasmodium falciparum W2. Format: functional, organism-based.
The test system of another assay is Hepatocyte. Nature of the assay: Cytotoxicity against rat hepatocytes. The class given is functional, cell-based.

Each structure is given as a SMILES string.

The IC50 is the point on the concentration scale where inhibition reaches its midpoint. Higher therefore signals weaker potency in that assay. Turning to `Cc1ccc2c(=O)n(CC(=O)C[C@H]3NCCC[C@@H]3O)cnc2c1`, the IC50 with Plasmodium falciparum [1] came out at 0.002 µM; in the assay on Plasmodium falciparum [2], 0.0022 µM; in the assay on Hepatocyte, 0.117 µM.
The like results for `CC(C)(C)c1cccc2ncn(CC(=O)C[C@H]3NCCC[C@@H]3O)c(=O)c12` were, in that order, 0.132 µM, 0.16 µM and 70 µM.
The like results for `O=C(C[C@H]1NCCC[C@@H]1O)Cn1cnc2ccc(C(F)(F)F)cc2c1=O` were, in that order, 0.014 µM, 0.016 µM and 15 µM.
The like results for `O=C(C[C@H]1NCCC[C@@H]1O)Cn1cnc2ccncc2c1=O` were, in that order, 0.0015 µM, 0.0018 µM and 17 µM.
As for `O=C(C[C@H]1NCCC[C@@H]1O)Cn1cnc2cccc(C(F)(F)F)c2c1=O`, the concentration for half-maximal inhibition (IC50) in the assay on Plasmodium falciparum [1] was found to be 0.00043 µM; with Plasmodium falciparum [2] it was 0.00041 µM; in the assay with Hepatocyte, 19 µM.
As for `COc1cccc2c(=O)n(CC(=O)C[C@H]3NCCC[C@@H]3O)cnc12`, the concentration for half-maximal inhibition (IC50) was determined as 0.0012 µM in the assay with Plasmodium falciparum [1], 0.0013 µM in the assay on Plasmodium falciparum [2] and 0.016 µM with Hepatocyte.
The like results for `COc1ccc2c(=O)n(CC(=O)C[C@H]3NCCC[C@@H]3O)cnc2c1` were, in that order, 0.0014 µM, 0.0013 µM and 0.015 µM.
Consider `O=C(C[C@H]1NCCC[C@@H]1O)Cn1cnc2cccc(F)c2c1=O`, for which the half-inhibitory concentration (IC50) stood at 0.0013 µM with Plasmodium falciparum [1], 0.0013 µM with Plasmodium falciparum [2] and 19 µM in the assay with Hepatocyte.
For `Cc1cccc2c(=O)n(CC(=O)C[C@H]3NCCC[C@@H]3O)cnc12`, the results for the IC50 in the assay with Plasmodium falciparum [1], in the assay on Plasmodium falciparum [2] and in the assay with Hepatocyte were 0.0017 µM, 0.0019 µM and 0.14 µM, respectively.
Consider `O=C(C[C@H]1NCCC[C@@H]1O)Cn1cnc2ccc(F)c(F)c2c1=O`, for which the half-inhibitory concentration (IC50) in the assay on Plasmodium falciparum [1] was determined as 0.00033 µM; with Plasmodium falciparum [2], 0.00039 µM; in the assay on Hepatocyte it was 17 µM.
As to `O=C(C[C@H]1NCCC[C@@H]1O)Cn1cnc2cnccc2c1=O`, the 50% inhibitory concentration (IC50) in the assay with Plasmodium falciparum [1] worked out at 0.063 µM; in the assay with Plasmodium falciparum [2] it was 0.073 µM; in the assay on Hepatocyte, 19 µM.
Regarding `O=C(C[C@H]1NCCC[C@@H]1O)Cn1cnc2ncccc2c1=O`, the half-inhibitory concentration (IC50) in the assay with Plasmodium falciparum [1] came to 0.07 µM; with Plasmodium falciparum [2], 0.109 µM; with Hepatocyte, 22 µM.
As to `CC(C)(C)c1ccc2ncn(CC(=O)C[C@H]3NCCC[C@@H]3O)c(=O)c2c1`, the IC50 was found to be 0.165 µM with Plasmodium falciparum [1] and 0.188 µM in the assay on Plasmodium falciparum [2].
Regarding `O=C(C[C@H]1NCCC[C@@H]1O)Cn1cnc2c(F)cccc2c1=O`, the figures for the IC50 in the assay with Plasmodium falciparum [1], in the assay with Plasmodium falciparum [2] and in the assay with Hepatocyte were 0.103 µM, 0.1 µM and 16 µM, respectively.
The like results for `O=C(C[C@H]1NCCC[C@@H]1O)Cn1cnc2ccc(F)cc2c1=O` were, in that order, 0.0047 µM, 0.005 µM and 13 µM.
The like results for `O=C(C[C@H]1NCCC[C@@H]1O)Cn1cnc2cccnc2c1=O` were, in that order, 0.0012 µM, 0.0013 µM and 18 µM.
On to `CCN(CC)CCCC(C)Nc1ccnc2cc(Cl)ccc12` (stereo unspecified) [CHLOROQUINE], for which, in the assay with Hepatocyte, the half-inhibitory concentration (IC50) came out at 19 µM.
Turning to `O=C(C[C@@H]1NCCC[C@H]1O)Cn1cnc2ccccc2c1=O` [FEBRIFUGINE], the IC50 came to 0.0016 µM with Plasmodium falciparum [1], 0.0019 µM with Plasmodium falciparum [2] and 0.169 µM in the assay on Hepatocyte.
